For 23 compounds, T/C results are on record in PubChem BioAssay AID256 (DTP/NCI, 2004).

For the assay, the system named is CD2F1 mice, L1210 leukemia ip, survival T/C. Nature of the assay: NCI In Vivo Anticancer Drug Screen. Data for tumor model L1210 Leukemia (intraperitoneal) in CD2F1 (CDF1) mice. Conditions: higher = longer survival. The gist of the method: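 Transplantable tumor in mice; compound-treated vs vehicle-treated groups. Read-out = treated/control ratio of the measured endpoint.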

[1] abbreviates: endpoint: mean survival time, dose: 12.5 mg/kg/injection, schedule: Q01DX009 (ip), vehicle: saline.
The mark [2] stands for this setting: endpoint: mean survival time, dose: 25.0 mg/kg/injection, schedule: Q01DX009 (ip), vehicle: saline.
Where [3] appears, read: endpoint: mean survival time, dose: 25.0 mg/kg/injection, schedule: Q01DX009 (ip), vehicle: other.
[4] abbreviates: endpoint: mean survival time, dose: 50.0 mg/kg/injection, schedule: Q01DX009 (ip), vehicle: other.
The mark [5] stands for this setting: endpoint: mean survival time, dose: 100.0 mg/kg/injection, schedule: Q01DX009 (ip), vehicle: other.
Setting [6] is: endpoint: mean survival time, dose: 100.0 mg/kg/injection, schedule: Q01DX001 (ip), vehicle: saline with Tween-80.
Setting [7] is: endpoint: mean survival time, dose: 200.0 mg/kg/injection, schedule: Q01DX001 (ip), vehicle: saline with Tween-80.
[8] abbreviates: endpoint: mean survival time, dose: 400.0 mg/kg/injection, schedule: Q01DX001 (ip), vehicle: saline with Tween-80.
Where [9] appears, read: endpoint: mean survival time, dose: 100.0 mg/kg/injection, schedule: Q01DX001 (ip), vehicle: saline.
[10] abbreviates: endpoint: mean survival time, dose: 200.0 mg/kg/injection, schedule: Q01DX001 (ip), vehicle: saline.
[11] abbreviates: endpoint: mean survival time, dose: 400.0 mg/kg/injection, schedule: Q01DX001 (ip), vehicle: saline.
[12] abbreviates: endpoint: mean survival time, dose: 100.0 mg/kg/injection, schedule: Q01DX009 (ip), vehicle: saline with Tween-80.
Where [13] appears, read: endpoint: mean survival time, dose: 100.0 mg/kg/injection, schedule: Q04DX003 (ip), vehicle: saline with Tween-80.
[14] abbreviates: endpoint: mean survival time, dose: 200.0 mg/kg/injection, schedule: Q04DX003 (ip), vehicle: saline with Tween-80.
[15] abbreviates: endpoint: mean survival time, dose: 400.0 mg/kg/injection, schedule: Q04DX003 (ip), vehicle: saline with Tween-80.
Where [16] appears, read: endpoint: mean survival time, dose: 150.0 mg/kg/injection, schedule: Q01DX009 (ip), vehicle: saline.

SMILES strings stand for the structures. Values joined by “and” are separate entries in the source; they are usually repeats but may differ in a detail not shown here. Equal values may be shown once. Toxic doses and inconclusive results are not listed.

As to `NC(N)=NC(N)=Nc1ccc(-c2ccc(N=C(N)N=C(N)N)cc2)cc1`, the T/C is, setting by setting: (endpoint: mean survival time, dose: 0.78 mg/kg/injection, schedule: Q01DX009 (ip), vehicle: saline) 100 % of control; (endpoint: mean survival time, dose: 1.56 mg/kg/injection, schedule: Q01DX009 (ip), vehicle: saline) 105 % of control; (endpoint: mean survival time, dose: 3.13 mg/kg/injection, schedule: Q01DX009 (ip), vehicle: saline) 102 % of control; (endpoint: mean survival time, dose: 6.25 mg/kg/injection, schedule: Q01DX009 (ip), vehicle: saline) 111 % of control; under setting [1], 104 % of control; under setting [2], 111 % of control.

For the compound `CCOC(=O)CC1=Cc2c(OC)ccc(OC)c2CC1`, the T/C is, setting by setting: (endpoint: mean survival time, dose: 12.5 mg/kg/injection, schedule: Q01DX009 (ip), vehicle: other) 95 % of control; under setting [3], 106 % of control; under setting [4], 98 % of control; under setting [5], 92 % of control; (endpoint: mean survival time, dose: 200.0 mg/kg/injection, schedule: Q01DX009 (ip), vehicle: other) 88 % of control.

As for `O=S1(=O)CCS(=O)(=O)C1`, the T/C is 104 % of control (endpoint: mean survival time, dose: 50.0 mg/kg/injection, schedule: Q01DX001 (ip), vehicle: saline with Tween-80); 98 % of control under setting [6]; 95 % of control under setting [7].

Take `Cc1nnc2ncccn12`: the T/C was 96 % of control and 102 % of control under setting [1]; 96 % of control and 97 % of control under setting [2]; 92 % of control and 96 % of control (endpoint: mean survival time, dose: 50.0 mg/kg/injection, schedule: Q01DX009 (ip), vehicle: saline); 95 % of control and 97 % of control (endpoint: mean survival time, dose: 100.0 mg/kg/injection, schedule: Q01DX009 (ip), vehicle: saline); 90 % of control and 96 % of control (endpoint: mean survival time, dose: 200.0 mg/kg/injection, schedule: Q01DX009 (ip), vehicle: saline).

Take `CCC(C)N(CCCOC(=O)c1ccc(N)cc1)C(C)CC` (stereo not drawn): the T/C is 103 % of control (endpoint: mean survival time, dose: 12.5 mg/kg/injection, schedule: Q04DX003 (ip), vehicle: saline); 107 % of control (endpoint: mean survival time, dose: 25.0 mg/kg/injection, schedule: Q04DX003 (ip), vehicle: saline); 103 % of control (endpoint: mean survival time, dose: 50.0 mg/kg/injection, schedule: Q04DX003 (ip), vehicle: saline).

In the case of `COc1cc(/C=N/N2C(=O)CSC2=S)ccc1OCc1ccccc1`, the T/C was 95 % of control under setting [6], 91 % of control under setting [7] and 89 % of control under setting [8].

Regarding `CCOC(=O)NC(=O)O`, the T/C was 114 % of control under setting [9], 103 % of control under setting [10] and 97 % of control under setting [11].

For `CC1CC(=O)C2CC(Cl)CCC2(C)C1C` (stereo not drawn), the T/C (endpoint: mean survival time, dose: 25.0 mg/kg/injection, schedule: Q01DX009 (ip), vehicle: saline with Tween-80) is 97 % of control; the T/C (endpoint: mean survival time, dose: 50.0 mg/kg/injection, schedule: Q01DX009 (ip), vehicle: saline with Tween-80) is 90 % of control; the T/C under setting [12] is 94 % of control.

Turning to `Cc1ccc(S(=O)(=O)OCC2OCOC(C(O)CO)C2O)cc1` (stereo not drawn), the T/C was 101 % of control (endpoint: mean survival time, dose: 50.0 mg/kg/injection, schedule: Q01DX009 (ip), vehicle: Klucel (hydroxypropylcellulose) (HPC)); 97 % of control (endpoint: mean survival time, dose: 100.0 mg/kg/injection, schedule: Q01DX009 (ip), vehicle: Klucel (hydroxypropylcellulose) (HPC)); 97 % of control (endpoint: mean survival time, dose: 200.0 mg/kg/injection, schedule: Q01DX009 (ip), vehicle: Klucel (hydroxypropylcellulose) (HPC)).

`O=C(CC(=O)C(F)(F)C(F)(F)C(F)(F)F)C(F)(F)F.O=C(CC(=O)C(F)(F)C(F)(F)C(F)(F)F)C(F)(F)F.O=C(CC(=O)C(F)(F)C(F)(F)C(F)(F)F)C(F)(F)F.O=C(CC(=O)C(F)(F)C(F)(F)C(F)(F)F)C(F)(F)F.[Yb]`: the T/C was 100 % of control (endpoint: median survival time, dose: 50.0 mg/kg/injection, schedule: Q04DX002 (ip), vehicle: saline with Tween-80); 100 % of control (endpoint: median survival time, dose: 100.0 mg/kg/injection, schedule: Q04DX002 (ip), vehicle: saline with Tween-80); 100 % of control (endpoint: median survival time, dose: 200.0 mg/kg/injection, schedule: Q04DX002 (ip), vehicle: saline with Tween-80); 100 % of control (endpoint: median survival time, dose: 400.0 mg/kg/injection, schedule: Q04DX002 (ip), vehicle: saline with Tween-80).

Take `COC(=O)C(C(N)=O)C(=O)C1C(=O)N(c2ccccc2)N=C1C` (stereo not drawn): the T/C by setting is: (endpoint: mean survival time, dose: 50.0 mg/kg/injection, schedule: Q04DX002 (ip), vehicle: saline with Tween-80) 97 % of control; (endpoint: mean survival time, dose: 100.0 mg/kg/injection, schedule: Q04DX002 (ip), vehicle: saline with Tween-80) 93 % of control; (endpoint: mean survival time, dose: 200.0 mg/kg/injection, schedule: Q04DX002 (ip), vehicle: saline with Tween-80) 93 % of control.

As to `Cc1ccccc1NC(=O)c1ccccc1`, the T/C was 97 % of control under setting [12]; 100 % of control (endpoint: mean survival time, dose: 200.0 mg/kg/injection, schedule: Q01DX009 (ip), vehicle: saline with Tween-80); 91 % of control (endpoint: mean survival time, dose: 400.0 mg/kg/injection, schedule: Q01DX009 (ip), vehicle: saline with Tween-80).

Take `CN=NNc1ccc(C(=O)NC(C)C)cc1`: the T/C reads like this: (endpoint: mean survival time, dose: 25.0 mg/kg/injection, schedule: Q01DX009 (ip), vehicle: DMSO) 112 % of control; under setting [3], 110 % of control; (endpoint: mean survival time, dose: 50.0 mg/kg/injection, schedule: Q01DX009 (ip), vehicle: DMSO) 114 % of control; under setting [4], 102 % of control and 109 % of control; under setting [5], 107 % of control; (endpoint: mean survival time, dose: 200.0 mg/kg/injection, schedule: Q01DX009 (ip), vehicle: DMSO) 86 % of control.

As for `O=C(O/N=C(/CN1CCOCC1)c1ccc(Cl)cc1)c1ccccc1`, the T/C was 97 % of control under setting [13], 94 % of control under setting [14] and 90 % of control under setting [15].

For `Cc1nc(C)c2c(n1)Oc1ccc3ccccc3c1C2`, the T/C by setting is: under setting [9], 97 % of control; under setting [10], 97 % of control; under setting [11], 97 % of control.

As to `O=C(/C=C\c1ccc(NCc2ccc(C(=O)O)cc2)cc1)CCl`, the T/C is 111 % of control under setting [12], 91 % of control under setting [14] and 86 % of control under setting [15].

Take `CC(C)C1=CC23CCC4C(C)(C(=O)O)CCCC4(C)C2CC1OO3` (stereo not drawn): the T/C is, setting by setting: under setting [13], 93 % of control; under setting [14], 92 % of control; under setting [15], 95 % of control.

On to `CCOC(=O)CCN1CCCC2(C1)OCCO2`, for which the T/C is 109 % of control (endpoint: mean survival time, dose: 12.5 mg/kg/injection, schedule: Q04DX002 (ip), vehicle: saline); 95 % of control (endpoint: mean survival time, dose: 25.0 mg/kg/injection, schedule: Q04DX002 (ip), vehicle: saline); 98 % of control (endpoint: mean survival time, dose: 50.0 mg/kg/injection, schedule: Q04DX002 (ip), vehicle: saline).

For the compound `Nc1ccn(C2CC(CO)C(O)C2O)c(=O)n1` (stereo not drawn), under setting [16], the T/C was 204 % of control.

As for `CC1NC(=O)OC1(C)C(C)(C)C` (stereo not drawn), the T/C runs as follows: (endpoint: mean survival time, dose: 5.0 mg/kg/injection, schedule: Q01DX009 (ip), vehicle: saline with Tween-80) 94 % of control; (endpoint: mean survival time, dose: 10.0 mg/kg/injection, schedule: Q01DX009 (ip), vehicle: saline with Tween-80) 104 % of control; (endpoint: mean survival time, dose: 20.0 mg/kg/injection, schedule: Q01DX009 (ip), vehicle: saline with Tween-80) 102 % of control.

In the case of `CCN(CC)C1=C(c2ccccc2)C(=O)C(=O)C1c1ccccc1` (stereo not drawn), the T/C under setting [6] is 103 % of control, the T/C under setting [7] is 107 % of control and the T/C under setting [8] is 94 % of control.

Regarding `COCCCNC(=O)CS(=O)(=O)c1ccc(C)cc1`, the T/C was 102 % of control (endpoint: mean survival time, dose: 100.0 mg/kg/injection, schedule: Q04DX003 (ip), vehicle: saline); 98 % of control (endpoint: mean survival time, dose: 200.0 mg/kg/injection, schedule: Q04DX003 (ip), vehicle: saline); 102 % of control (endpoint: mean survival time, dose: 400.0 mg/kg/injection, schedule: Q04DX003 (ip), vehicle: saline).

In the case of `CCCCCCCCCCCCCCCCOS(=O)(=O)O`, the T/C is 98 % of control (endpoint: mean survival time, dose: 37.5 mg/kg/injection, schedule: Q01DX009 (ip), vehicle: saline); 97 % of control (endpoint: mean survival time, dose: 75.0 mg/kg/injection, schedule: Q01DX009 (ip), vehicle: saline); 98 % of control under setting [16].
